Patent US20060286173A1, “Drug delivery system for sub-tenon s capsule adminstration of fine grains” (priority 2003, published 2006)

Experiment: In vitro drug release test
Type: physicochemical
Conditions: 0.1 M phosphate buffer pH 7.4, 37° C.
Method: This mixture was placed in a glass vessel, and thereto was added 98.5 mL of 0.1 M phosphate buffer (pH 7.4). The entire mixture was shaken in a water bath at 37° C., and the in vitro drug release test was started. […] As a control, the powder of each drug in the same amount was charged into the chamber described above, and the release test was conducted in the same manner.
2) On day 1, 2, 6, 14, 29 after starting the test, the buffer was sampled in its entirety, which was analyzed using high performance liquid chromatography. Also, after the sampling, 98.5 mL of 0.1 M phosphate buffer (pH 7.4) was freshly added, and the release test was continued.

With `CC1(C)O[C@@H]2C[C@H]3[C@@H]4C[C@H](F)C5=CC(=O)C=C[C@]5(C)[C@@]4(F)[C@@H](O)C[C@]3(C)[C@]2(C(=O)CO)O1` [Fluocinolone acetonide powder, fluocinolone acetonide] the “In vitro drug release rate (%)” value (Day 1) was 57.6% and the “In vitro drug release rate (%)” value (Day 2) was 73.4%.
